Test results published in paper PMC10958001, “THOUSAND-GRAIN WEIGHT 6, which is an IAA-glucose hydrolase, preferentially recognizes the structure of the indole ring” (Scientific Reports, 2024).

Assays:
[1] = target: T1, TGW6 (THOUSAND-GRAIN WEIGHT 6), IAA-glucose hydrolase (Oryza sativa, UniProt Q69U01); experiment: […] NMR fragment screening (CPMG R2 filter); format: binding; conditions: 298 K
T1 construct: gene Os06g0623700; recombinant; N-terminal Trx-(His)6 tag cleaved with thrombin; E. coli Rosetta-gami 2(DE3); purified
T1 sequence (Q69U01 31-350): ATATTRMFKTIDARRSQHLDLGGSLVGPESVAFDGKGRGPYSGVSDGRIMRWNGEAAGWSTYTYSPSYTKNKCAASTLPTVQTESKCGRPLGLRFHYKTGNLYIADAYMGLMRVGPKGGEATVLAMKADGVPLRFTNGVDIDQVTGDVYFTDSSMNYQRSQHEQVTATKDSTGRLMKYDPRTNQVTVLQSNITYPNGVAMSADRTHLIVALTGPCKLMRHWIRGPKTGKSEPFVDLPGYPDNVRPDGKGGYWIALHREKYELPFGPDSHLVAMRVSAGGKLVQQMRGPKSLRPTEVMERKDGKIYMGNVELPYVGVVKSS

[2] = target: T1, TGW6 (THOUSAND-GRAIN WEIGHT 6), IAA-glucose hydrolase; experiment: thermal shift (UNCLE, intrinsic Trp fluorescence BCM); format: binding; conditions: 27.6 μM TGW6, 55.0 μM ligand, 2 mM CaCl2, pH 7.0
[3] = 10 μM TGW6, 50 μM fragment in mixture

Row | Compound | Tm shift [2] | further results
1 | O=[N+]([O-])c1c(F)cccc1N1CCC(O)CC1 [CK0-02991, 1-(3-Fluoro-2-nitrophenyl)piperidin-4-ol] |  | ΔIntensity (%) [1, 3]: − 57.9
2 | O=C(O)C(c1c[nH]c2ccc(F)cc12)C(F)(F)F (stereo not shown) [PK0-42071, 3,3,3-Trifluoro-2-(5-fluoro-1H-indol-3-yl)propanoic acid] |  | ΔIntensity (%) ([1]; 10 μM TGW6, CF3-containing fragment at 17.5 μM in mixture): − 46.0
3 | O=C(O)Cc1c[nH]c2cccc(F)c12 [PK0-38501, 2-(4-Fluoro-1H-indol-3-yl)acetic acid] | ~ 7 °C | ΔIntensity (%) [1, 3]: − 46.5
4 | O=C(Cc1c[nH]c2ccccc12)O[C@@H]1O[C@H](CO)[C@@H](O)[C@H](O)[C@H]1O [IAA-Glc, 1-O-indole-3-ylacetyl-β-D-glucose] | ~ 5 °C | 
5 | O=C(O)Cc1c[nH]c2c(F)cccc12 [PK0-38511, 2-(7-Fluoro-1H-indol-3-yl)acetic acid] | ~ 9 °C | ΔIntensity (%) ([1]; 10 μM TGW6, 50 μM fragment in mixture, competitive with IAA-Glc): − 50.3
6 | O=[N+]([O-])c1ccc(OC2CCOCC2)c(F)c1 [CK0-03011, 4-(2-Fluoro-4-nitrophenoxy)tetrahydro-2H-pyran] |  | ΔIntensity (%) [1, 3]: − 45.4
7 | O=C(O)Cc1c[nH]c2ccccc12 [IAA, indole-3-acetic acid] | > 3 °C | 
8 | O=[N+]([O-])c1ccc(OCC2CCCO2)c(F)c1 (stereo not shown) [CK0-00681, 2-[(2-Fluoro-4-nitrophenoxy)methyl]tetrahydrofuran] |  | ΔIntensity (%) ([1]; 10 μM TGW6, 50 μM fragment in mixture, not competitive with IAA-Glc, different site implied): − 100.0
9 | C[C@H](NC(=O)Cc1c[nH]c2ccccc12)C(=O)O [IAA-Ala] | ~ 10 °C | 
10 | O=C(O)CCCc1c[nH]c2ccccc12 [IBA, indole 3-butyric acid] | > 3 °C | 
11 | COC(=O)Cc1c[nH]c2ccccc12 [MeIAA, methyl indole 3-acetate] | > 3 °C | 
